According to US20160205934A1 (Rohm and Haas Company, priority 2013, published 2016):
Like-named read-outs stand apart in the source and are kept apart here.

Columns and labels:
[1] = test system: Stichococcus bacillaris SAG 379-1a / CCAP 379/1a; experiment: Algal efficacy testing of dry paint films (modified ASTM 5589, 6-well plates); assay type: cell-based; settings: for Total conc: total biocide conc in paint chosen as minimum inhibitory concentration (pass level 75% inhibition), or maximum tested where pass not reached
Protocol: (§1) The at least one phenylurea herbicide, (diuron, chlorotoluron, and/or isoproturon) was post added, as 33% active slurries, to a white, acrylic/silicone based outdoor paint free of biocides to give a total active ingredient concentration of 10000 and 1000 ppm respectively. These paints were then diluted with an antimicrobial free acrylic/silicone based paint and mixed to prepare targeted concentrations of antimicrobial compounds for the testing. The total biocides concentrations tested were 125, 250, 500, 1000, 2000 and 5000 ppm. After biocides addition or dilution, the paints were mixed 90 seconds with the horse power shaker (AXEL 75M3372/Agitateur SO-10MI) until uniformity was achieved. Paints containing different antimicrobial compounds at the same levels were mixed together in order to obtain the desired ratio of antimicrobial compounds. After one day, the paints were applied to Schleicher & Schuell filter paper at 280 μm wet film thickness and dried for 3 days at room temperature avoiding direct exposure to sunlight. Square discs (1.6 cm×1.6 cm) were cut out from each panel and were used as the substrate for algal efficacy tests. This sample size allowed for an agar border when the sample disc was placed into the well of the test plate.
(§2) Algal efficacy was tested according to modified ASTM 5589 which is a standard accelerated test method for determining resistance of various coatings (including paints) to algal defacement. To accommodate for high-throughput screening, this method was scaled down from petri dishes to 6-well plates. Bold Modified Basal Freshwater Nutrient Solution was used as growth medium. A single coated filter paper coupon was placed with a pair of sterile forceps at the center of the agar plug (on top) with the painted surface facing upwards. Algal inoculums were prepared by mixing equal concentrations (1×10^6 cfu/ml) and equal volumes of exponentially growing algae cultures.
(§3) Each well that contains a tested coupon was inoculated with 1750 μl of algal suspensions (1×10^6 cfu/ml) making sure that the whole surface (paint film as well as the agar surrounding it) was evenly covered. The plates were incubated at room temp (21° C.-25° C.) with cyclic exposure to light and dark phases, for a period of four weeks.
(§4) At the end of the four week incubation period, the samples were scored for percent inhibition regarding visible algal growth compared to the blank sample (0% inhibition).
(§5) The minimal targeted inhibition was set at 75%, meaning a coupon with at least 75% algal growth inhibition was considered as a pass.

[2] = test system: Chlorella sp. ATCC 7516; experiment: as above; assay type: cell-based; settings: 4 weeks; for inhibition at 1000 ppm: total conc 1000 ppm; for Total conc: total biocide conc in paint chosen as minimum inhibitory concentration (pass level 75% inhibition), or maximum tested where pass not reached
Protocol: as §1, §2, §3, §4, §5

[3] = Stichococcus bacillaris, 672 h, Stichococcus, total conc 500 ppm, 4 weeks, visible algal growth vs blank, read-out: % inhibition
[4] = 672 h, visible algal growth vs blank

SMILES	inhibition at 500 ppm [1, 3] [%]	Total conc ([1]; Stichococcus, 4 weeks) [ppm]	inhibition at 1000 ppm [2, 4] [%]	Total conc [2] [ppm]	inhibition at 2000 ppm ([1]; Stichococcus bacillaris, 672 h) [%]	inhibition at 5000 ppm ([1]; Stichococcus bacillaris, 672 h) [%]	inhibition at 5000 ppm ([2]; 672 h, total conc 5000 ppm, visible algal growth vs blank) [%]	% inhibition ([2]; total conc 5000 ppm, visible algal growth vs blank) [%]	inhibition at 500 ppm ([1]; Stichococcus bacillaris, 672 h) [%]	inhibition at 500 ppm ([2]; 672 h, total conc 500 ppm, visible algal growth vs blank) [%]
Cc1ccc(NC(=O)N(C)C)cc1Cl [Chlorotoluron, chlorotoluron]	75	500	100	1000						
O=c1[nH]c2c(c(=O)n1C1CCCCC1)CCC2 [Lenacil, 3-cyclohexyl-1,5,6,7-tetrahydrocyclopentapyrimidine-2,4(3H)-dione]				5000	80	65	45	50		
CN(C)C(=O)Nc1ccc(Cl)c(Cl)c1 [Diuron, diuron]		500		500					95	90
CC(C)c1ccc(NC(=O)N(C)C)cc1 [Isoproturon, isoproturon]	75	500	100	1000						
